The values below come from patent US9012397B2 (priority 2011, dated 2015).

The assay deals with unidentified sting. Details: species or system human. To be noted: in vivo.

Regarding pGLU-ASN-TRP-LYS-C8 [ZEP3], the clinical outcome was “relief from the itching sensation within a number of minutes” and the “time until redness disappeared” value was found to be 2 days.
